# Assay results taken from US20090163523A1, “Combinations comprising a s1p receptor agonist and a jak3 kinase inhibitor” (priority 2004, published 2009).
# Test system: donor heart graft
# Test: Rat heart transplantation, graft survival
# Format: in vivo
# Settings: 672 h; rat heart transplant; blood concentration; read-out: EC50 (drug concentration in blood at which 50% of the animals maintain their graft for >28 days)
# Experimental: The aorta is ligated and divided distal to the first branch and the brachiocephalic trunk is divided at the first bifurcation. The left pulmonary artery is ligated and divided and the right side divided but left open. All other vessels are dissected free, ligated and divided and the donor heart is removed into iced saline.
# The recipient is prepared by dissection and cross-clamping of the infra-renal abdominal aorta and vena cava. The graft is implanted with end-to-side anastomoses, using 10/0 monofilament suture, between the donor brachiocephalic trunk and the recipient aorta and the donor right pulmonary artery to the recipient vena cava. The clamps are removed, the graft tethered retroabdominally, the abdominal contents washed with warm saline and the animal is closed and allowed to recover under a heating lamp. Graft survival is monitored by daily palpation of the beating donor heart through the abdominal wall. Rejection is considered to be complete when heart beat stops.
smiles,measurement,value
"C[C@@H]1CCN(C(=O)CC#N)C[C@@H]1N(C)c1ncnc2[nH]ccc12 [CP-690,550 mono-citrate, 3-{(3R,4R)-4-methyl-3-[methyl-(7H-pyrrolo[2,3-d]pyrimidin-4-yl)-amino]-piperidin-1-yl}-3-oxo-propionitrile]",EC50,0.06 µg/mL
